Type in all cases: cell-based
The subject of test [1] is N87 human gastric cancer cell line. The test can be described thus: Cytotoxic activity of dimers against N87 cells. To be noted: for EC50: Table 5 comparative activities, N87; for IC50: read-out: Cell Line (IC50, nM) N87. The text has this: (§1) H226 is a human lung cancer cell line. N87 is a human gastric cancer cell line. OVCAR3 is a human ovarian cancer cell line. HCT116 is a human colon cancer cell line. HCT116/VM46 is a human colon cancer cell line that is multi-drug and paclitaxel resistant.

The test system of test [2] is OVCAR3 human ovarian cancer cell line. The test is described as follows: Cytotoxic activity of dimers against OVCAR3 cells. To be noted: for EC50: Table 5 comparative activities, OVCAR3.
Source text: as §1

In test [3] the test system is H226 human lung cancer cell line. The test is described as follows: Cytotoxic activity of dimers against H226 cells. Particulars: for EC50: Table 5 comparative activities, H226.
Source text: as §1

Test [4] relates to HCT116/VM46 human colon cancer cell line (multi-drug and paclitaxel resistant). The test can be described thus: Cytotoxic activity of dimers against HCT116/VM46 cells.
Source text: as §1

In test [5] the test system is HCT116 human colon cancer cell line. The test is described as follows: Cytotoxic activity of dimers against HCT116 cells.
Source text: as §1

Setting [6] is: Table 4, N87 human gastric cancer cell line.
The mark [7] stands for this setting: Table 4, OVCAR3 human ovarian cancer cell line, read-out: Cell Line (IC50, nM) OVCAR3.
Setting [8] is: Table 4, H226 human lung cancer cell line, read-out: Cell Line (IC50, nM) H226.

Drawing on patent US9902740B2, “Macrocyclic benzodiazepine dimers, conjugates thereof, preparation and uses” (BRISTOL-MYERS SQUIBB COMPANY, priority 2015, dated 2018), this text covers EC50 and IC50 for 26 molecules.

Where two headings read alike, the source gives them in different places.

A word on the EC50: it is the concentration that produces a half-maximal response. High values mean weaker potency, low ones greater potency. The term IC50 denotes the concentration needed to halve the response being measured.

With `COc1cc2c(cc1OCCCOc1cc3c(cc1OC)C(=O)N1CCC[C@H]1C=N3)N=C[C@@H]1CCCN1C2=O` [Dimer A-4, reference compound], the EC50 came out at 63 nM in test [1] (Homo sapiens); 56 nM in test [2] (Homo sapiens, OVCAR-3); 70 nM in test [3] (Homo sapiens, NCI-H226).

Take `O=C1c2cc3c(cc2N=C[C@@H]2CCCN12)OCCCOc1cc2c(cc1OCCCCCCCO3)C(=O)N1CCC[C@H]1C=N2` [IIa-1]: the IC50 in test [1] (setting [6]) stood at 4.6 nM; in test [2] (setting [7]), 3.4 nM; in test [4] (Table 4), 74 nM; in test [3] (setting [8]), 8.1 nM. Further, the EC50 in test [1] was 4.6 nM; in test [2], 3.4 nM; in test [3], 8.1 nM.

Regarding `O=C1c2cc3c(cc2N=C[C@@H]2CCCN12)OCCCOc1cc2c(cc1OCCCCCCCCO3)C(=O)N1CCC[C@H]1C=N2` [IIa-2], the figures for the IC50 in test [1] (setting [6]), in test [2] (setting [7]) and in test [3] (setting [8]) were 2.7 nM, 1.2 nM and 1.6 nM, respectively. The results for the EC50 in test [1], in test [2] and in test [3] were 2.7 nM, 1.2 nM and 1.6 nM, respectively.

In the case of `O=C1c2cc3c(cc2N=C[C@@H]2CCCN12)OCCCOc1cc2c(cc1OCCCCCCCCCO3)C(=O)N1CCC[C@H]1C=N2` [IIa-3], the IC50 in test [1] (setting [6]) turned out to be 8.3 nM; in test [2] (setting [7]) it was 7.3 nM; in test [3] (setting [8]), 8.7 nM. In addition, the figures for the EC50 in test [1], in test [2] and in test [3] were 8.3 nM, 7.3 nM and 8.7 nM, respectively.

For `O=C1c2cc3c(cc2N=C[C@@H]2CCCN12)OCCCOc1cc2c(cc1OCCCCCCCCCCO3)C(=O)N1CCC[C@H]1C=N2` [IIa-4], the values for the IC50 in test [1] (setting [6]), in test [2] (setting [7]) and in test [3] (setting [8]) were 22 nM, 20 nM and 12 nM, respectively. Further, the EC50 in test [1] was 22 nM; in test [2], 20 nM; in test [3], 12 nM.

As for `O=C1c2cc3c(cc2N=C[C@@H]2CCCN12)OCCCOc1cc2c(cc1OCCCCCCCCCCCO3)C(=O)N1CCC[C@H]1C=N2` [IIa-5], the IC50 in test [1] (setting [6]) turned out to be 150 nM; in test [2] (setting [7]) it was 78 nM; in test [3] (setting [8]) it was 69 nM. The EC50 is 150 nM in test [1], 78 nM in test [2] and 69 nM in test [3].

As for `O=C1c2cc3c(cc2N=C[C@@H]2CCCN12)OCCCOc1cc2c(cc1OCCCCCCCCCCCCO3)C(=O)N1CCC[C@H]1C=N2` [IIa-6], the IC50 came out at 310 nM in test [1] (setting [6]), 140 nM in test [2] (setting [7]) and 110 nM in test [3] (setting [8]). For the same molecule, the EC50 in test [1] stood at 310 nM; in test [2] it was 140 nM; in test [3] it was 110 nM.

For the molecule `O=C1c2cc3c(cc2N=C[C@@H]2CCCN12)OCCCCCOc1cc2c(cc1OCCCCCCCCCCCO3)C(=O)N1CCC[C@H]1C=N2` [IIa-7], the results for the IC50 in test [1] (setting [6]), in test [2] (setting [7]) and in test [3] (setting [8]) were 87 nM, 14 nM and 12 nM, respectively. Moreover, the EC50 came out at 87 nM in test [1], 14 nM in test [2] and 12 nM in test [3].

`O=C1c2cc3c(cc2N=C[C@@H]2CCCN12)OCCCCCOc1cc2c(cc1OCCCCCCCCCCCCO3)C(=O)N1CCC[C@H]1C=N2` [IIa-8]: the IC50 in test [1] (setting [6]) was 15 nM; in test [2] (setting [7]), 9.9 nM; in test [3] (setting [8]), 10 nM. The figures for the EC50 in test [1], in test [2] and in test [3] were 15 nM, 9.9 nM and 10 nM, respectively.

Regarding `O=C1c2cc3c(cc2N=C[C@@H]2CCCN12)OCCCOc1cc2c(cc1OCCCC/C=C/CCCCO3)C(=O)N1CCC[C@H]1C=N2` [IIa-9], the figures for the IC50 in test [1] (setting [6]), in test [2] (setting [7]) and in test [3] (setting [8]) were 13 nM, 12 nM and 12 nM, respectively. Moreover, the EC50 amounted to 13 nM in test [1], 12 nM in test [2] and 12 nM in test [3].

For `C=C1C[C@H]2C=Nc3cc4c(cc3C(=O)N2C1)OCCCC/C=C/CCCCOc1cc2c(cc1OCCCO4)N=C[C@@H]1CC(=C)CN1C2=O` [IIa-10], the IC50 turned out to be 2.3 nM in test [1] (setting [6]), 0.47 nM in test [2] (setting [7]), 11 nM in test [4] (Table 4) and 2 nM in test [3] (setting [8]).

As to `C=C1C[C@H]2C=Nc3cc4c(cc3C(=O)N2C1)OCCCCCCCCOc1cc2c(cc1OCCCO4)N=C[C@@H]1CC(=C)CN1C2=O` [IIa-12], the IC50 was 0.89 nM in test [1] (setting [6]), 0.52 nM in test [2] (setting [7]), 4.8 nM in test [4] (Table 4) and 0.32 nM in test [3] (setting [8]).

On to `C=C1C[C@H]2C=Nc3cc4c(cc3C(=O)N2C1)OCCOCCOCCOc1cc2c(cc1OCCCO4)N=C[C@@H]1CC(=C)CN1C2=O` [IIa-13], for which the IC50 in test [5] (Table 4) came to 32 nM; in test [1] (setting [6]), 40 nM; in test [2] (setting [7]), 20 nM; in test [4] (Table 4) it was 85 nM; in test [3] (setting [8]), 29 nM.

For `C=C1C[C@H]2C=Nc3cc4c(cc3C(=O)N2C1)OCCCCNCCCCOc1cc2c(cc1OCCCO4)N=C[C@@H]1CC(=C)CN1C2=O` [IIa-14], the IC50 in test [5] (Table 4) was 38 nM; in test [1] (setting [6]), 23 nM; in test [2] (setting [7]), 50 nM; in test [4] (Table 4) it was 170 nM; in test [3] (setting [8]), 21 nM.

With `O=C1c2cc3c(cc2N=C[C@@H]2Cc4ccccc4CN12)OCCCOc1cc2c(cc1OCCCCCCCCO3)C(=O)N1Cc3ccccc3C[C@H]1C=N2` [IIb-1], the IC50 in test [1] (setting [6]) was 0.53 nM; in test [2] (setting [7]), 0.33 nM; in test [4] (Table 4) it was 1.3 nM; in test [3] (setting [8]) it was 0.22 nM.

Consider `O=C1c2cc3c(cc2N=C[C@@H]2Cc4ccccc4CN12)OCCCOc1cc2c(cc1OCCCCCCCCCCO3)C(=O)N1Cc3ccccc3C[C@H]1C=N2` [IIb-2], for which the IC50 came to 2.5 nM in test [1] (setting [6]), 1.3 nM in test [2] (setting [7]), 17 nM in test [4] (Table 4) and 3 nM in test [3] (setting [8]).

As for `O=C1c2cc3c(cc2N=C[C@@H]2Cc4ccccc4N12)OCCCOc1cc2c(cc1OCCCCCCCCCCO3)C(=O)N1c3ccccc3C[C@H]1C=N2` [IIb-3], the IC50 worked out at 11 nM in test [1] (setting [6]), 3.5 nM in test [2] (setting [7]), 13 nM in test [4] (Table 4) and 5.9 nM in test [3] (setting [8]).

As to `O=C1c2cc3c(cc2N=C[C@@H]2Cc4ccccc4CN12)OCCCOc1cc2c(cc1OCCOCCOCCO3)C(=O)N1Cc3ccccc3C[C@H]1C=N2` [IIb-4], the IC50 in test [5] (Table 4) came out at 0.068 nM; in test [1] (setting [6]) it was 0.14 nM; in test [2] (setting [7]), 0.2 nM; in test [4] (Table 4), 2 nM; in test [3] (setting [8]), 0.15 nM.

As for `O=C1c2cc3c(cc2N=C[C@@H]2Cc4ccccc4CN12)OCCCOc1cc2c(cc1OCCCCNCCCCO3)C(=O)N1Cc3ccccc3C[C@H]1C=N2` [IIb-5], the IC50 in test [5] (Table 4) turned out to be 0.077 nM; in test [1] (setting [6]) it was 0.35 nM; in test [2] (setting [7]), 0.6 nM; in test [4] (Table 4) it was 7.3 nM; in test [3] (setting [8]), 0.45 nM.

For the molecule `Nc1ccc2c(c1)CN1C(=O)c3cc4c(cc3N=C[C@@H]1C2)OCCCOc1cc2c(cc1OCCCCCCCCO4)C(=O)N1Cc3ccccc3C[C@H]1C=N2` [IIb-6], the IC50 in test [5] (HCT-116, Table 4) was found to be 0.016 nM; in test [1] (Homo sapiens), 0.25 nM; in test [2] (Homo sapiens, OVCAR-3, read-out: Cell Line (IC50, nM) OVCAR3), 0.21 nM; in test [4] (Homo sapiens, HCT-116/VM46, Table 4) it was 0.66 nM; in test [3] (Homo sapiens, NCI-H226, read-out: Cell Line (IC50, nM) H226), 0.21 nM.

Turning to `Nc1ccc(CN2CCCCOc3cc4c(cc3OCCCOc3cc5c(cc3OCCCC2)C(=O)N2Cc3ccccc3C[C@H]2C=N5)N=C[C@@H]2Cc3ccccc3CN2C4=O)cc1` [IIb-8], the IC50 in test [5] (Table 4) was 0.015 nM; in test [1] (setting [6]) it was 0.27 nM; in test [2] (setting [7]), 0.25 nM; in test [4] (Table 4) it was 1.2 nM; in test [3] (setting [8]), 0.13 nM.

With `O=C1c2cc3c(cc2N=C[C@@H]2CC(c4ccccc4)=CN12)OCCCOc1cc2c(cc1OCCCCCCCCCCO3)C(=O)N1C=C(c3ccccc3)C[C@H]1C=N2` [IIc-1], the half-maximal inhibitory concentration (IC50) is 12 nM in test [1] (setting [6]), 7.6 nM in test [2] (setting [7]), 30 nM in test [4] (Table 4) and 12 nM in test [3] (setting [8]).

For `COc1ccc(C2=CN3C(=O)c4cc5c(cc4N=C[C@@H]3C2)OCCCOc2cc3c(cc2OCCCCCCCCCCCCO5)C(=O)N2C=C(c4ccc(OC)cc4)C[C@H]2C=N3)cc1` [IIc-2], the IC50 is 48 nM in test [5] (Table 4); 230 nM in test [1] (setting [6]); greater than 250 nM in test [2] (setting [7]); greater than 250 nM in test [4] (Table 4); 220 nM in test [3] (setting [8]).

Take `COCCOc1ccc(C2=CN3C(=O)c4cc5c(cc4N=C[C@@H]3C2)OCCCOc2cc3c(cc2OCCCCCCCCCCCCO5)C(=O)N2C=C(c4ccc(OCCOC)cc4)C[C@H]2C=N3)cc1` [IIc-3]: the IC50 in test [5] (Table 4) stood at 13 nM; in test [1] (setting [6]), 29 nM; in test [2] (setting [7]), 104 nM; in test [4] (Table 4), 58 nM; in test [3] (setting [8]) it was 32 nM.

Consider `O=C1c2cc3c(cc2N=C[C@@H]2CC(c4ccccc4)=CN12)OCCCOc1cc2c(cc1OCCOCCOCCO3)C(=O)N1C=C(c3ccccc3)C[C@H]1C=N2` [IIc-6], for which the IC50 in test [5] (Table 4) was found to be 0.13 nM; in test [1] (setting [6]) it was 1.5 nM; in test [2] (setting [7]) it was 1.7 nM; in test [4] (Table 4), 6.4 nM; in test [3] (setting [8]), 1.1 nM.

Regarding `COc1ccc(C2=CN3C(=O)c4cc5c(cc4N=C[C@@H]3C2)OCCCOc2cc3c(cc2OCCCCCCCCO5)C(=O)N2C=C(c4ccc(OC)cc4)C[C@H]2C=N3)cc1` [IIc-7], the IC50 in test [5] (Table 4) came out at 0.17 nM; in test [1] (setting [6]) it was 0.62 nM; in test [2] (setting [7]) it was 1.8 nM; in test [4] (Table 4) it was 1.1 nM; in test [3] (setting [8]), 0.99 nM.
